The compounds below were run against T1, human PAD4 (Homo sapiens, UniProt Q9UM07) (assay: In vitro PAD4 BAEE biochemical assay). Details: human PAD4, BAEE substrate; 5 nM PAD4, 2 mM calcium chloride, 3 mM BAEE; geometric mean of multiple experiments.
T1 construct: human PAD4 (NM_012387), A2P663, was PCR amplified; His-SUMO (N, cleaved yes); made in house; host or cells: E. coli BL21(DE3)
In short: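 Tag-free recombinant hPAD4 (5 nM), 2 mM CaCl2, 3 mM BAEE, 50 mM MOPS pH 7.6, 2 mM DTT; 30 min compound preincubation, 2 h reaction, all 25 °C. EDTA quench; ammonia read via o-phthalaldehyde amine coupling, 1 h.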

T1 sequence (Q9UM07 2-663): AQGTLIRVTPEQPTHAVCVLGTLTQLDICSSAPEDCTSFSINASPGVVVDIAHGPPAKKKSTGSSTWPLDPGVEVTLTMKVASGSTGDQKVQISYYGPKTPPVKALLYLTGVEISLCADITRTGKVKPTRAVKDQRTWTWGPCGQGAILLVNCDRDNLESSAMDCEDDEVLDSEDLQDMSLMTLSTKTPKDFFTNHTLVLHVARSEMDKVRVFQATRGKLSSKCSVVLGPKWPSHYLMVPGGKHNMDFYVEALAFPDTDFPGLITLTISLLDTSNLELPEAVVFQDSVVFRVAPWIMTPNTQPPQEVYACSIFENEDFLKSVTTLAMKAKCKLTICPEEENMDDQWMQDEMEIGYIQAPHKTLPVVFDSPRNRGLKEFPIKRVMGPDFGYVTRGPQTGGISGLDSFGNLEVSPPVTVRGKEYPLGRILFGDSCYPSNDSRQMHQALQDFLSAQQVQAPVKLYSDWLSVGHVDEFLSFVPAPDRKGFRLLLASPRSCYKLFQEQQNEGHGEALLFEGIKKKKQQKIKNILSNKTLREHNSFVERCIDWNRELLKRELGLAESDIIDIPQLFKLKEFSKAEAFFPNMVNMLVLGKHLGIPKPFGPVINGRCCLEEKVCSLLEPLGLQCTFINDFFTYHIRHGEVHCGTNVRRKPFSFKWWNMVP

COc1cc(C(=O)N2[C@H]3CC[C@@H]2[C@H](N)C3)cc2nc(-c3cc4ccc([C@@H](C)NC(=O)C(C)(O)C(C)C)nc4n3CC3CC3)c(C)n12 (stereo partly drawn) [Example 93, ~{N}-[(1~{R})-1-[2-[7-[(1~ {R},2~{R},4~{S})-2-amino-7-azabicyclo[2.2.1]heptane-7-carbonyl]-5-methoxy-3-methylimidazo [1,2-a]pyridin-2-yl]-1-(cyclopropylmethyl)pyrrolo [2,3-b]pyridin-6-yl]ethyl]-2-hydroxy-2,3-dimethylbutanamide] and COc1cc(C(=O)N2[C@H]3CC[C@@H]2[C@H](N)C3)cc2nc(-c3cc4ccc([C@@H](C)NC(=O)C(C)(C)CO)nc4n3CC3CC3)c(C)n12 [Example 134] are within 1.5-fold of each other in IC50: 68.4 nM for the first, 66.5 nM for the second.

First: COc1cc(C(=O)N(C)C)cc2nc(-c3cc4ccc([C@@H](C)N(C)C(=O)c5ccccc5)nc4n3CC3CC3)c(C)n12 [Example 184, 2-[6-[(1~{R})-1-[benzoyl (methyl)amino]ethyl]-1-(cyclopropylmethyl)pyrrolo [2,3-b]pyridin-2-yl]-5-methoxy-~{N},~{N},3-trimethylimidazo[1,2-a] pyridine-7-carboxamide]
Second: COc1cc(C(=O)N2[C@H]3CC[C@@H]2[C@H](N)C3)cc2nc(-c3cc4ccc([C@H](NC(=O)C5(C#N)CC5)C(F)(F)F)nc4n3CC3CC3)c(C)n12 [Example 191, ~{N}-[(1~{S})-1-[2-[7-[(1~{R},2~{R},4~{S})-2-amino-7-azabicyclo[2.2.1]heptane-7-carbonyl]-5-methoxy-3-methylimidazo [1,2-a]pyridin-2-yl]-1-(cyclopropylmethyl)pyrrolo [2,3-b]pyridin-6-yl]-2,2,2-trifluoroethyl]-1-cyanocyclopropane-1-carboxamide]
The IC50 of the first is 25-fold higher: 17700 nM for the first, 708 nM for the second. The second is the more potent here.

Going from COc1cc(C(=O)N2[C@H]3CC[C@@H]2[C@H](N)C3)cc2nc(-c3cc4ccc([C@@H](C)NC(=O)C56CC(C#N)(C5)C6)nc4n3CC3CC3)c(C3CC3)n12 [Example 140, ~{N}-[(1~{R})-1-[2-[7-[(1~{R},2~{R},4~{S})-2-amino-7-azabicyclo[2.2.1]heptane-7-carbonyl]-3-cyclopropyl-5-methoxyimidazo[1,2-a]pyridin-2-yl]-1-(cyclopropylmethyl)pyrrolo[2,3-b]pyridin-6-yl]ethyl]-3-cyanobicyclo[1.1.1]pentane-1-carboxamide] to COc1cc(C(=O)N2CC[C@H]3OCCCN[C@H]3C2)cc2nc(-c3cc4ccc(N(C(F)F)S(C)(=O)=O)nc4n3CC3CC3)c(C)n12 [Example 359], the IC50 rises from 118 nM to 420 nM (3.6-fold).

COc1cc(C(=O)N2[C@H]3CC[C@@H]2[C@H](N)C3)cc2nc(-c3cc4ccc(C5CCCN(C(=O)N6CCCC6)C5)nc4n3CC3CC3)c(C)n12 (stereo partly drawn) [Example 518, [(1~{R},2~{R},4~{S})-2-amino-7-azabicyclo [2.2.1]heptan-7-yl]-[2-[1-(cyclopropylmethyl)-6-[1-(pyrrolidine-1-carbonyl)piperidin-3-yl]pyrrolo [2,3-b]pyridin-2-yl]-5-methoxy-3-methylimidazo [1,2-a]pyridin-7-yl] methanone] and CCc1c(-c2cc3ccc(N(C(F)F)S(C)(=O)=O)nc3n2CC2CC2)nc2cc(C(=O)N3CCC[C@@H](N)C3)cc(OC)n12 [Example 399, ~{N}-[2-[7-[(3~{R})-3-aminopiperidine-1-carbonyl]-3-ethyl-5-methoxyimidazo[1,2-a]pyridin-2-yl]-1-(cyclopropylmethyl)pyrrolo [2,3-b]pyridin-6-yl]-~{N}-(difluoromethyl) methanesulfonamide] are within 1.5-fold of each other in IC50: 344 nM for the first, 285 nM for the second.

Going from COc1cc(C(=O)N2[C@H]3CC[C@@H]2[C@H](N)C3)cc2nc(-c3cc4ccc(N5c6ccccc6CS5(=O)=O)nc4n3CC3CC3)c(C)n12 [Example 467, [(1~{R},2~{R},4~{S})-2-amino-7-azabicyclo [2.2.1]heptan-7-yl]-[2-[1-(cyclopropylmethyl)-6-(2,2-dioxo-3~{H}-2,1-benzothiazol-1-yl)pyrrolo [2,3-b]pyridin-2-yl]-5-methoxy-3-methylimidazo [1,2-a]pyridin-7-yl] methanone] to COc1cc(C(=O)N2[C@H]3CC[C@@H]2[C@H](N)C3)cc2nc(-c3cc4ccc([C@@H](C)NC(=O)N(C)c5ccccc5)nc4n3CC3CC3)c(C)n12 [Example 242, 3-[(1~{R})-1-[2-[7-[(1~{R},2~{R},4~{S})-2-amino-7-azabicyclo[2.2.1]heptane-7-carbonyl]-5-methoxy-3-methylimidazo [1,2-a]pyridin-2-yl]-1-(cyclopropylmethyl)pyrrolo [2,3-b]pyridin-6-yl]ethyl]-1-methyl-1-phenylurea], the IC50 falls from 361 nM to 238 nM (1.5-fold).

First: CS(=O)(=O)N(c1ccc2cc(-c3nc4cc(C(=O)N5[C@H]6CC[C@@H]5[C@H](N)C6)ccn4c3C3CC3)n(CC3CC3)c2n1)C(F)F [Example 386, ~{N}-[2-[7-[(1~{R},2~{R}, 4~{S})-2-amino-7-azabicyclo[2.2.1]heptane-7-carbonyl]-3-cyclopropylimidazo [1,2-a]pyridin-2-yl]-1-(cyclopropylmethyl)pyrrolo [2,3-b]pyridin-6-yl]-~{N}-(difluoromethyl) methanesulfonamide]
Second: COc1cc(C(=O)N2[C@H]3CC[C@@H]2[C@H](N)C3)cc2nc(-c3cc4ccc([C@@H](C)NC(=O)N5CCOC[C@@H]5C(F)(F)F)nc4n3CC3CC3)c(C)n12 [Example 199, (3~{R})-~{N}-[(1~{R})-1-[2-[7-[(1~{R}, 2~{R},4~{S})-2-amino-7-azabicyclo[2.2.1]heptane-7-carbonyl]-5-methoxy-3-methylimidazo [1,2-a]pyridin-2-yl]-1-(cyclopropylmethyl)pyrrolo [2,3-b]pyridin-6-yl]ethyl]-3-(trifluoromethyl)morpholine-4-carboxamide]
The IC50 of the first is 3.6-fold higher: 126 nM for the first, 35.4 nM for the second.

Compared with “~{N}-[(1~{R})-1-[2-[7- [(1~{R},2~{R},4~{S})-2- amino-7- azabicyclo[2.2.1]heptane- 7-carbonyl]-3-cyclopropyl- 5-methoxyimidazo [1,2-a]pyridin-2-yl]-1-(1- bicyclo[1.1.1] pentanylmethyl)pyrrolo [2,3-b]pyridin-6-yl]ethyl]- 3-fluorobicyclo[1.1.1] pentane-1-carboxamide [Example 487]”, COc1cc(C(=O)N2[C@H]3CC[C@@H]2[C@H](N)C3)cc2nc(-c3cc4ccc([C@@H]5CCNC(=O)C5)nc4n3CC3CC3)c(C)n12 [Example 555, (4~{R})-4-[2-[7-[(1~{R},2~{R},4~{S})-2-amino-7-azabicyclo[2.2.1]heptane-7-carbonyl]-5-methoxy-3-methylimidazo [1,2-a]pyridin-2-yl]-1-(cyclopropylmethyl)pyrrolo [2,3-b]pyridin-6-yl]piperidin-2-one] is 4.8-fold lower in IC50: 331 nM for the first, 69.3 nM for the second. The second is the more potent here.

First: COc1cc(C(=O)N2[C@H]3CC[C@@H]2[C@@H]2NCCO[C@@H]2C3)cc2nc(-c3cc4ccc([C@@H](C)NC(=O)C56CC(F)(C5)C6)nc4n3CC3CC3)c(C)n12 [Example 13, ~{N}-[(1~{R})-1-[1-(cyclopropylmethyl)-2-[5-methoxy-3-methyl-7-[(1~{R},2~{S},7~{R}, 9~{S})-6-oxa-3,12-diazatricyclo [7.2.1.0^{2,7}]dodecane-12-carbonyl]imidazo[1,2-a]pyridin-2-yl]pyrrolo[2,3-b]pyridin-6-yl]ethyl]-3-fluorobicyclo[1.1.1] pentane-1-carboxamide]
Second: COc1cc(C(=O)N2[C@H]3CC[C@@H]2[C@H](N)C3)cc2nc(-c3cc4ccc([C@@H](C)NC(=O)N(C)Cc5cccnc5)nc4n3CC3CC3)c(C)n12 [Example 222, 3-[(1~{R})-1-[2-[7-[(1~{R},2~{R},4~{S})-2-amino-7-azabicyclo[2.2.1]heptane-7-carbonyl]-5-methoxy-3-methylimidazo [1,2-a]pyridin-2-yl]-1-(cyclopropylmethyl)pyrrolo [2,3-b]pyridin-6-yl]ethyl]-1-methyl-1-(pyridin-3-ylmethyl)urea]
The IC50 of the first is 89-fold higher: 1780 nM for the first, 20 nM for the second. The second is the more potent here.

First: CS(=O)(=O)N(c1ccc2cc(-c3nc4cc(C(=O)N5CC[C@@H](F)[C@@H](N)C5)ccn4c3C3CC3)n(CC3CC3)c2n1)C(F)F [Example 394, ~{N}-[2-[7-[(3~{S},4~{R})-3-amino-4-fluoropiperidine-1-carbonyl]-3-cyclopropylimidazo[1,2-a]pyridin-2-yl]-1-(cyclopropylmethyl)pyrrolo [2,3-b]pyridin-6-yl]-~{N}-(difluoromethyl) methanesulfonamide]
Second: COc1cc(C(=O)N2CC[C@H]3C[C@@]3(N)C2)cc2nc(-c3cc4ccc(N(C(F)F)S(C)(=O)=O)nc4n3CC3CC3)c(C)n12 [Example 362, ~{N}-[2-[7-[(1~{S}, 6~{S})-1-amino-3-azabicyclo[4.1.0]heptane-3-carbonyl]-5-methoxy-3-methylimidazo [1,2-a]pyridin-2-yl]-1-(cyclopropylmethyl)pyrrolo [2,3-b]pyridin-6-yl]-~{N}-(difluoromethyl) methanesulfonamide]
The IC50 of the first is 4.3-fold higher: 1070 nM for the first, 248 nM for the second.

Compared with COc1ccccc1C(=O)N[C@H](C)c1ccc2cc(-c3nc4cc(C(=O)N5[C@H]6CC[C@@H]5[C@H](N)C6)cc(OC)n4c3C)n(CC3CC3)c2n1 [Example 17], CCC(C)(O)c1ccc2cc(-c3nc4cc(C(=O)N5[C@H]6CC[C@@H]5[C@H](N)C6)cc(OC)n4c3C)n(CC3CC3)c2n1 (stereo partly drawn) [Example 572, [(1~{R},2~{R},4~{S})-2-amino-7-azabicyclo [2.2.1]heptan-7-yl]-[2-[1-(cyclopropylmethyl)-6-(2-hydroxybutan-2-yl)pyrrolo [2,3-b]pyridin-2-yl]-5-methoxy-3-methylimidazo[1,2-a]pyridin-7-yl]methanone] is 2.3-fold lower in IC50: 348 nM for the first, 152 nM for the second. The second is the more potent here.

CNC(=O)CC(C)c1ccc2cc(-c3nc4cc(C(=O)N5[C@H]6CC[C@@H]5[C@H](N)C6)cc(OC)n4c3C)n(CC3CC3)c2n1 (stereo partly drawn) [Example 524, 3-[2-[7-[(1~{R},2~{R}, 4~{S})-2-amino-7-azabicyclo[2.2.1]heptane-7-carbonyl]-5-methoxy-3-methylimidazo[1,2-a]pyridin-2-yl]-1-(cyclopropylmethyl)pyrrolo [2,3-b]pyridin-6-yl]-~{N}-methylbutanamide] showed an IC50 of 78.9 nM.

Reference: patent US12240862B2, “Inhibitors of peptidylarginine deiminases” (Gilead Sciences, Inc., priority 2020, dated 2025)
